# Measurements taken from patent publication US20250241916A1, “TYROSINE KINASE INHIBITORS” (Nuvectis Pharma, Inc., priority 2022, published 2025).
# Key:
# [1] = target: T1, full-length human BTK (GST-BTK) (Homo sapiens, UniProt Q06187); test: Off-chip Mobility Shift Assay (MSA), tyrosine kinase inhibition, BTK; type: biochemical; conditions: for inhibition at 0.5 µM: 0.5 μM compound
# T1 construct: made in house
# Experimental: (§1) Compound A was dissolved in dimethylsulfoxide (DMSO), and further diluted with assay buffer to a final concentration of 0.5 μmol/L. Reference compounds for assay control were prepared similarly. For BTK inhibition studies, full-length human BTK [2-659 (end) amino acids of accession number NP_000052] was expressed as N-terminal GST-fusion protein (103 kDa) using baculovirus expressionsystem. GST-BTK was purified by using glutathione sepharose chromatography. For BTK[C481S] inhibition studies, full-length human BTK [2-659 (end) amino acids and C481S of accession number NP_000052] was expressed as N-terminal GST-fusion protein (103 kDa) using baculovirusexpression system. GST-BTK[C481S] was purified by using glutathione sepharosechromatography.
# (§2) A 4× Substrate/ATP/Metal solution was prepared with buffer (20 mmol/L HEPES, 0.01% Triton X-100, 5 mmol/L DTT, pH 7.5), and a 2× kinase solution was also prepared with buffer (20 mmol/L HEPES, 0.01% Triton X-100, 1 mmol/L DTT, pH 7.5). 5 μL of 4× compound solution, 5 μL of 4× Substrate/ATP/Metal solution, and 10 μL of 2× kinase solution were mixed and incubated in a well of polypropylene 384 well microplate for 1 hour at room temperature. 70 μL of Termination Buffer (QuickScout Screening Assist MSA) was added to the well. The reaction mixture was applied to LabChip™ system, and the product and substrate peptide peaks were separated and quantitated. The kinase reaction was evaluated by the product ratio calculated from peak heights of product (P) and substrate (S) peptides (P/(P+S)).
# (§3) The readout value of reaction control (complete reaction mixture) was set as a 0% inhibition, and the readout value of background (Enzyme(−)) was set as a 100% inhibition, then the percent inhibition of each test solution was calculated (Table 2).
# [2] = target: T2, full-length human BTK[C481S] (GST-BTK[C481S]) (Homo sapiens, UniProt Q06187, C481S); test: Off-chip Mobility Shift Assay (MSA), tyrosine kinase inhibition, BTK[C481S]; type: biochemical; conditions: for inhibition at 0.5 µM: 0.5 μM compound
# T2 construct: made in house
# T2 sequence (Q06187 2-659 C481S): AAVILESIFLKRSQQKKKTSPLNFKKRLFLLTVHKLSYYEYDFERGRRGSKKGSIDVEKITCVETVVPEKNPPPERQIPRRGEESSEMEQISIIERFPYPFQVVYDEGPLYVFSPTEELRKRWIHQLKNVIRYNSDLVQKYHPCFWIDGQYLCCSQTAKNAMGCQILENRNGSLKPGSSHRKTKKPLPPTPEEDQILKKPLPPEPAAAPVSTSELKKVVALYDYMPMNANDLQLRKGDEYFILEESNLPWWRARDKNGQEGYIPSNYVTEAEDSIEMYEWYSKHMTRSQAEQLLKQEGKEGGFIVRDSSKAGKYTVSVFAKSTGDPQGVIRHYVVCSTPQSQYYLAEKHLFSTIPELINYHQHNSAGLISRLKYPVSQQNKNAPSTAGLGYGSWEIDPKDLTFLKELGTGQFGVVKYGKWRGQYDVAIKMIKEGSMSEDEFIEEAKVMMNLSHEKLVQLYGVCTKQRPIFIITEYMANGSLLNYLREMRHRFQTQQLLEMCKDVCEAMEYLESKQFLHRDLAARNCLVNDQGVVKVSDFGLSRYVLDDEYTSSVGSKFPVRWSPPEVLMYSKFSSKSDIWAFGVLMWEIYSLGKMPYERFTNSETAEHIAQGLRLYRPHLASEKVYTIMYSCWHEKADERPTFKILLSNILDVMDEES
# Experimental: as §1, §2, §3
# [3] = tested on: pan cancer squamous lines; test: Sensitivity of cancer cell line panel (102 cell lines) to compound; type: cell-based; conditions: FIG. 1, p<0.05
# Text: Examples of squamous cell carcinomas contemplated herein may include, but are not limited to, cutaneous squamous cell carcinoma, esophageal squamous cell carcinoma, head and neck squamous cell carcinoma, squamous cell carcinoma of the vulva, and lung squamous cell carcinoma.
# A shift to the left represents increased sensitivity. Size of circles represents number of cell lines with alteration (minimum of cell lines per alteration).
# [4] = tested on: Cal27 (tongue squamous cell carcinoma) xenograft; test: Cal27 mouse xenograft model, antitumor efficacy
# Experimental: (§4) Prior to the in-life phase of the study, the animals were weighed and examined for signs of physical disorder. […] Tumor reads were collected every 2 days up to 28 days, starting treatment at 100 mm^3 tumor volume and ending at 2000 mm^3 tumor volume. A t-test was applied to determine the significance of differences in tumor volumes.
# (§5) Dose materials were prepared weekly in aliquots and stored frozen at −20° C. until dosing. For enrollment of mice into study, subcutaneous tumor volumes were monitored daily until reaching a minimum palpable tumor volume (˜100 mm3 by caliper) in the required number of mice. […] Following randomization and study cohort assignment, each dose cohort was treated according to dosage and schedule. Mice were euthanized when study end points were reached.
# (§6) Tumor volume measurements were performed every 2 days (up to 3 times per week) using a calibrated caliper. Tumor volumes were determined using the formula length (mm)×width (mm)×height (mm)×0.50.
# (§7) A tumor volume humane endpoint was reached when a 20% loss in body weight (excluding tumor weight) was observed over a week, or a 15% loss in body weight over 2 to 3 day period, or if a body condition score less than 2 (Body Condition Scoring for scoring guide), or the tumor weight exceeded 10% of the non-tumor bearing body weight (tumor weight was calculated based on tumor height×length×width×0.50×density of 1 g/cm^3) or when the tumor exceeded 2000 mm^3 in size. Body weight measurements were performed every 2 days (up to 3 times per week) during the 28-day treatment period to coincide with tumor volume measurement schedule. A humane endpoint was reached when body weight loss exceeded 20%.
# (§8) The abbreviation RTV28 (relative tumor volume, day 28)=[avg. tumor volume D28]/[avg. tumor volume at baseline]. The abbreviation TGI % (percent tumor growth inhibition)=(1−[RTV28 of the treated group]/[RTV28 vehicle])×100.
# [5] = tested on: KYSE70 (esophageal squamous cell carcinoma) xenograft; test: KYSE70 mouse xenograft model, antitumor efficacy; conditions: for Avg. Baseline Tumor Volume: 40 mg/kg
# Experimental: as §4, §5, §6, §7, §8
# [6] = 40 mg/kg oral once daily, 28 days, p≤0.001 vs vehicle on Day 27
# [7] = (1-RTV28 treated/RTV28 vehicle)x100, 40 mg/kg oral once daily
# [8] = Day 27, 40 mg/kg oral once daily
# [9] = Day 28, 40 mg/kg oral once daily
# [10] = avg. tumor volume D28 / baseline, 40 mg/kg oral once daily
# T1 sequence (Q06187 2-659): as the sequence (Q06187 2-659 C481S) above, with S480C counted along it
smiles,measurement,setting,value
"COc1cc(-c2nn(CCN3CCC(N(C)C)CC3)c3ncnc(N)c23)ccc1NC(=O)OC(C)(C)C [Compound A, tert-Butyl (4-(4-amino-1-(2-(4-(dimethylamino)piperidin-1-yl)ethyl)-1H-pyrazolo[3,4-d]pyrimidin-3-yl)-2-methoxyphenyl)carbamate]",IC50,[1],12.5 nM
same,inhibition at 0.5 µM,[1],96.9%
same,IC50,[2],16.3 nM
same,inhibition at 0.5 µM,[2],95.1%
same,sensitivity of pan cancer squamous carcinomas (10logIC50),[3],high sensitivity
same,tumor growth inhibition,[4]; [6],substantial TGI
same,Tumor Growth Inhibition (TGI),[4]; [7],86%
same,average tumor volume on Day 27,[4]; [8],91.4 mm3
same,mean percent increase from baseline in body weight,[4]; [8],2.1%
same,Avg. Day 28. Tumor Volume,[4]; [9],91.4 mm^3
same,Relative Tumor Volume (RTV28),[4]; [10],0.78
same,Avg. Baseline Tumor Volume,"[4]; baseline, 40 mg/kg oral once daily",116.2 mm^3
same,tumor growth inhibition,[5]; [6],substantial tumor growth inhibition
same,Tumor Growth Inhibition (TGI),[5]; [7],95%
same,average tumor volume on Day 27,[5]; [8],31.5 mm^3
same,mean percent increase from baseline in body weight,[5]; [8],2.0%
same,decrease in tumor volume from baseline,"[5]; Day 27 vs baseline, 40 mg/kg oral once daily",71%
same,Avg. Day 28. Tumor Volume,[5]; [9],31.5 mm^3
same,Relative Tumor Volume (RTV28),[5]; [10],0.29
same,Avg. Baseline Tumor Volume,[5]; 40 mg/kg oral once daily,109.8 mm^3
same,Avg. Baseline Tumor Volume,"[5]; 40 mg/kg oral once daily, listed as Cmpd A",106.0 mm^3
"CNC1CCN(CCn2nc(-c3ccc(NC(=O)OC(C)(C)C)c(OC)c3)c3c(N)ncnc32)CC1 [Compound B, tert-butyl (4-(4-amino-1-(2-(4-(methylamino)piperidin-1-yl)ethyl)-1H-pyrazolo[3,4-d]pyrimidin-3-yl)-2-methoxyphenyl) carbamate]",IC50,[1],12.5 nM
same,inhibition at 0.5 µM,[1],95.6%
same,IC50,[2],16.3 nM
same,inhibition at 0.5 µM,[2],97.5%
